Paper PMC4620497 (Scientific Reports, 2015)

Key:
ERBB4 = molecular target: T1, ERBB4 (Homo sapiens, UniProt Q15303); design: method as in earlier work; details: Table S1; cited from earlier work
T1 construct: purchased DiscoveRx KINOMEscan (Ambit Biosciences)

PIK3CA(C420R) = molecular target: T2, PIK3CA(C420R) (Homo sapiens, UniProt P42336, C420R); test: KINOMEscan panel screen; type: binding; details: read-out: Percent Control(%)
T2 construct: purchased DiscoveRx KINOMEscan (Ambit Biosciences)

IGF1R = molecular target: T3, IGF1R (Homo sapiens, UniProt P08069); test: KINOMEscan panel screen; type: binding; details: read-out: Percent Control(%)
T3 construct: DNA tag (qPCR read-out); purchased Ambit Biosciences (KINOMEscan service)

SgK110 = molecular target: T4, SgK110 (Homo sapiens, UniProt P0C264); test: KINOMEscan panel screen; type: binding; details: read-out: Percent Control(%)
T4 construct: purchased DiscoveRx KINOMEscan (Ambit Biosciences)

TNK1 = molecular target: T5, TNK1 (Homo sapiens, UniProt Q13470); test: KINOMEscan panel screen; type: binding; details: read-out: Percent Control(%)
T5 construct: purchased DiscoveRx KINOMEscan (Ambit Biosciences)

RIPK1 = molecular target: T6, RIPK1 (Homo sapiens, UniProt Q13546); test: KINOMEscan panel screen; type: binding; details: read-out: Percent Control(%)
T6 construct: purchased DiscoveRx KINOMEscan (Ambit Biosciences)

EPHB1 = molecular target: T7, EPHB1 (Homo sapiens, UniProt P54762); test: KINOMEscan panel screen; type: binding; details: read-out: Percent Control(%)
T7 construct: purchased DiscoveRx KINOMEscan (Ambit Biosciences)

CSNK1G2 = molecular target: T8, CSNK1G2 (Homo sapiens, UniProt P78368); test: KINOMEscan panel screen; type: binding; details: read-out: Percent Control(%)
T8 construct: purchased DiscoveRx KINOMEscan (Ambit Biosciences)

BMPR1A = molecular target: T9, BMPR1A (Homo sapiens, UniProt P36894); test: KINOMEscan panel screen; type: binding; details: read-out: Percent Control(%)
T9 construct: purchased DiscoveRx KINOMEscan (Ambit Biosciences)

BRSK2 = molecular target: T10, BRSK2 (Homo sapiens, UniProt Q8IWQ3); test: KINOMEscan panel screen; type: binding; details: read-out: Percent Control(%)
T10 construct: purchased DiscoveRx KINOMEscan (Ambit Biosciences)

PKN2 = molecular target: T11, PKN2 (Homo sapiens, UniProt Q16513); test: KINOMEscan panel screen; type: binding; details: read-out: Percent Control(%)
T11 construct: purchased DiscoveRx KINOMEscan (Ambit Biosciences)

ROCK1 = ROCK1 (Homo sapiens, UniProt Q13464); test: KINOMEscan panel screen; type: binding; details: read-out: Percent Control(%)
CSF1R-autoinhibited = molecular target: T12, CSF1R-autoinhibited (Homo sapiens, UniProt P07333); test: KINOMEscan panel screen; type: binding; details: read-out: Percent Control(%)
T12 construct: purchased DiscoveRx KINOMEscan (Ambit Biosciences)

EGFR(T790M) = molecular target: T13, EGFR(T790M) (Homo sapiens, UniProt P00533, T790M); test: KINOMEscan panel screen; type: binding; details: read-out: Percent Control(%)
T13 construct: purchased DiscoveRx KINOMEscan (Ambit Biosciences)

p38-alpha = molecular target: T14, p38-alpha (Homo sapiens, UniProt Q16539); test: KINOMEscan panel screen; type: binding; details: read-out: Percent Control(%)
T14 construct: purchased DiscoveRx KINOMEscan (Ambit Biosciences)

DRAK1 = molecular target: T15, DRAK1 (Homo sapiens, UniProt Q9UEE5); test: KINOMEscan panel screen; type: binding; details: read-out: Percent Control(%)
T15 construct: purchased DiscoveRx KINOMEscan (Ambit Biosciences)

DYRK1A = molecular target: T16, DYRK1A (Homo sapiens, UniProt Q13627); test: KINOMEscan panel screen; type: binding; details: read-out: Percent Control(%)
T16 construct: purchased DiscoveRx KINOMEscan (Ambit Biosciences)

[1] = molecular target: T17, ABL1(F317L)-nonphosphorylated (Homo sapiens, UniProt P00519, F317L); test: KINOMEscan panel screen; type: binding; details: read-out: Percent Control(%)
T17 construct: purchased DiscoveRx KINOMEscan (Ambit Biosciences)

RET(M918T) = molecular target: T18, RET(M918T) (Homo sapiens, UniProt P07949, M918T); test: KINOMEscan panel screen; type: binding; details: read-out: Percent Control(%)
T18 construct: purchased DiscoveRx KINOMEscan (Ambit Biosciences)

PYK2 = molecular target: T19, PYK2 (Homo sapiens, UniProt Q14289); test: KINOMEscan panel screen; type: binding; details: read-out: Percent Control(%)
T19 construct: purchased DiscoveRx KINOMEscan (Ambit Biosciences)

OSR1 = molecular target: T20, OSR1 (Homo sapiens, UniProt O95747); test: KINOMEscan panel screen; type: binding; details: read-out: Percent Control(%)
T20 construct: purchased DiscoveRx KINOMEscan (Ambit Biosciences)

EGFR(L747-T751del,Sins) = test: KINOMEscan panel screen; type: binding; details: 10 μM
NEK7 = molecular target: T21, NEK7 (Homo sapiens, UniProt Q8TDX7); test: KINOMEscan panel screen; type: binding; details: read-out: Percent Control(%)
T21 construct: purchased DiscoveRx KINOMEscan (Ambit Biosciences)

CDK2 = CDK2 (Homo sapiens, UniProt P24941); test: KINOMEscan panel screen; type: binding; details: read-out: Percent Control(%)
PCTK3 = molecular target: T22, PCTK3 (Homo sapiens, UniProt Q07002); test: KINOMEscan panel screen; type: binding; details: read-out: Percent Control(%)
T22 construct: purchased DiscoveRx KINOMEscan (Ambit Biosciences)

FLT3-wt = molecular target: T23, FLT3-wt (Homo sapiens, UniProt P36888); test: KINOMEscan kinase binding assay (Kd)
T23 construct: DNA tag (qPCR read-out); purchased Ambit Biosciences (KINOMEscan service)

MAST1 = molecular target: T24, MAST1 (Homo sapiens, UniProt Q9Y2H9); test: KINOMEscan kinase binding assay (Kd)
T24 construct: purchased DiscoveRx KINOMEscan (Ambit Biosciences)

CSNK1A1 = molecular target: T25, CSNK1A1 (Homo sapiens, UniProt P48729); test: KINOMEscan panel screen; type: binding; details: read-out: Percent Control(%)
T25 construct: purchased DiscoveRx KINOMEscan (Ambit Biosciences)

HepG2 = test: MTT cell viability assay; details: Homo sapiens, HepG2, 72 h
[2] = molecular target: T26, JAK3(JH1domain-catalytic) (Homo sapiens, UniProt P52333); test: KINOMEscan panel screen; type: binding; details: read-out: Percent Control(%)
T26 construct: JAK3(JH1domain-catalytic); purchased DiscoveRx KINOMEscan (Ambit Biosciences)

PRP4 = molecular target: T27, PRP4 (Homo sapiens, UniProt Q13523); test: KINOMEscan panel screen; type: binding; details: read-out: Percent Control(%)
T27 construct: purchased DiscoveRx KINOMEscan (Ambit Biosciences)
Protocol: (§1) In vitro KINOMEscan kinase binding assays (Ambit Biosciences) were employed to determine the binding affinity (Kd) of compounds[41][42].
(§2) Supplementary Table S3. Matrix of compound screen for SKLB -677 obtained through service provided by DiscoveRX. The compound was screened at a concentration of 10μM. Results are given in %control.
(§3) KINOMEscan Gene Symbol Entrez Gene Percent Compound
(§4) Symbol Control(%) Concentration (μM) […]

CDC2L5 = molecular target: T28, CDC2L5 (Homo sapiens, UniProt Q14004); test: KINOMEscan panel screen; type: binding; details: read-out: Percent Control(%)
T28 construct: purchased DiscoveRx KINOMEscan (Ambit Biosciences)
Protocol: as §1, §2, §3, §4

PIK3CA(H1047Y) = molecular target: T29, PIK3CA(H1047Y) (Homo sapiens, UniProt P42336, H1047Y); test: KINOMEscan panel screen; type: binding; details: read-out: Percent Control(%)
T29 construct: purchased DiscoveRx KINOMEscan (Ambit Biosciences)

TRKA = molecular target: T30, TRKA (Homo sapiens, UniProt P04629); test: KINOMEscan panel screen; type: binding; details: read-out: Percent Control(%)
T30 construct: purchased DiscoveRx KINOMEscan (Ambit Biosciences)

ERK5 = molecular target: T31, ERK5 (Homo sapiens, UniProt Q13164); test: KINOMEscan panel screen; type: binding; details: read-out: Percent Control(%)
T31 construct: purchased DiscoveRx KINOMEscan (Ambit Biosciences)

ACVR1B = molecular target: T32, ACVR1B (Homo sapiens, UniProt P36896); test: KINOMEscan panel screen; type: binding; details: read-out: Percent Control(%)
T32 construct: purchased DiscoveRx KINOMEscan (Ambit Biosciences)

GRK7 = molecular target: T33, GRK7 (Homo sapiens, UniProt Q8WTQ7); test: KINOMEscan panel screen; type: binding; details: read-out: Percent Control(%)
T33 construct: purchased DiscoveRx KINOMEscan (Ambit Biosciences)

SRMS = molecular target: T34, SRMS (Homo sapiens, UniProt Q9H3Y6); test: KINOMEscan panel screen; type: binding; details: read-out: Percent Control(%)
T34 construct: purchased DiscoveRx KINOMEscan (Ambit Biosciences)

SRPK1 = molecular target: T35, SRPK1 (Homo sapiens, UniProt Q96SB4); test: KINOMEscan panel screen; type: binding; details: read-out: Percent Control(%)
T35 construct: purchased DiscoveRx KINOMEscan (Ambit Biosciences)

T29 sequence (P42336 whole entry H1047Y): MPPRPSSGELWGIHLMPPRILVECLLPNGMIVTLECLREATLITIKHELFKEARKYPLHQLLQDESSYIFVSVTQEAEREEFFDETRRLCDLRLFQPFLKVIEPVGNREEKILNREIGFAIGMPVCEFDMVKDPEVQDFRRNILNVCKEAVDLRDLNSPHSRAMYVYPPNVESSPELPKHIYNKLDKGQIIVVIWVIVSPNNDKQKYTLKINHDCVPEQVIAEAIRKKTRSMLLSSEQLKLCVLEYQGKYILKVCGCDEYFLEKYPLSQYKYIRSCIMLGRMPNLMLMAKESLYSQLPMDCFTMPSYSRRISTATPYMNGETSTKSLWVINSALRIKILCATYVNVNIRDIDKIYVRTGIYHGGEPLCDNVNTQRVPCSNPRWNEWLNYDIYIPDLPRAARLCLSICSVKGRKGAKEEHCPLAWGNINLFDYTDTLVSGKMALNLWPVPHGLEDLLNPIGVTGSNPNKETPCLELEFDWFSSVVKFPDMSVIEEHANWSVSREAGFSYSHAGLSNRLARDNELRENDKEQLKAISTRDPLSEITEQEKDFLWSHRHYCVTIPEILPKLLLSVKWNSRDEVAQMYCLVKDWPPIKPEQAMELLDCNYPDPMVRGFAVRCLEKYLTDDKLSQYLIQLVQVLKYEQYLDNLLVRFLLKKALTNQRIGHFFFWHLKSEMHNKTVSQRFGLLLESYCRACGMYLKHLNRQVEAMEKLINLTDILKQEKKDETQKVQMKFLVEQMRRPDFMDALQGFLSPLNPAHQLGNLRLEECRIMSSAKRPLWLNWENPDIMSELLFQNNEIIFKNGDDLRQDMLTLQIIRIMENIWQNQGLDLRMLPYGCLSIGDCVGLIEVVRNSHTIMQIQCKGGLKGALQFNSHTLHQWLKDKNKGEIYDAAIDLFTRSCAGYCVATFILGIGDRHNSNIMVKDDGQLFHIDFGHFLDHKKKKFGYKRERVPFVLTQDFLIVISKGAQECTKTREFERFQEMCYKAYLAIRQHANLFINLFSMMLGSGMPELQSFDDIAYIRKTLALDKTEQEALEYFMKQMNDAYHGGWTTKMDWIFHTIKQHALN
T14 sequence (Q16539 whole entry): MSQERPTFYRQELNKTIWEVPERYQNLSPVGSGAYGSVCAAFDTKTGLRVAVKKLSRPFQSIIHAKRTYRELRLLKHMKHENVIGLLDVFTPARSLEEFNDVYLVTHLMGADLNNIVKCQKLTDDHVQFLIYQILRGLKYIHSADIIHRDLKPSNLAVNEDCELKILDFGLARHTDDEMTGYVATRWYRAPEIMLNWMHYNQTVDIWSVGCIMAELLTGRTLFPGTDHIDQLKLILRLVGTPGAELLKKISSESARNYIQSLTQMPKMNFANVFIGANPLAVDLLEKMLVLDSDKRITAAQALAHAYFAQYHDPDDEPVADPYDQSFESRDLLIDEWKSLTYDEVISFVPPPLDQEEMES
T2 sequence (P42336 whole entry C420R): as the sequence (P42336 whole entry H1047Y) above, with C420R, Y1047H counted along it
T12 sequence (P07333 539-972 limits assumed): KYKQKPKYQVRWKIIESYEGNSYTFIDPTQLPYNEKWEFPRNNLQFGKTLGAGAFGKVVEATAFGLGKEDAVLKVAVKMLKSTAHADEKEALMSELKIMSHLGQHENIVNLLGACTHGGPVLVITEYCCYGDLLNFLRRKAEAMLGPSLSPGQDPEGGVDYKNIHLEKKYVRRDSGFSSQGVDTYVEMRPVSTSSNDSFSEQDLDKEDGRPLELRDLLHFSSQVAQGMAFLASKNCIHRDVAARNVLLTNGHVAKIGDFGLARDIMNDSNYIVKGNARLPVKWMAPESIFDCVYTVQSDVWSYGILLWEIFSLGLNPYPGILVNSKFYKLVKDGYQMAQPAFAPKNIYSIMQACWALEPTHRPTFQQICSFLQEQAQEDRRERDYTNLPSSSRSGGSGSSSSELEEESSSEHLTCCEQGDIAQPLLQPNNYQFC
T1 sequence (Q15303 26-1308): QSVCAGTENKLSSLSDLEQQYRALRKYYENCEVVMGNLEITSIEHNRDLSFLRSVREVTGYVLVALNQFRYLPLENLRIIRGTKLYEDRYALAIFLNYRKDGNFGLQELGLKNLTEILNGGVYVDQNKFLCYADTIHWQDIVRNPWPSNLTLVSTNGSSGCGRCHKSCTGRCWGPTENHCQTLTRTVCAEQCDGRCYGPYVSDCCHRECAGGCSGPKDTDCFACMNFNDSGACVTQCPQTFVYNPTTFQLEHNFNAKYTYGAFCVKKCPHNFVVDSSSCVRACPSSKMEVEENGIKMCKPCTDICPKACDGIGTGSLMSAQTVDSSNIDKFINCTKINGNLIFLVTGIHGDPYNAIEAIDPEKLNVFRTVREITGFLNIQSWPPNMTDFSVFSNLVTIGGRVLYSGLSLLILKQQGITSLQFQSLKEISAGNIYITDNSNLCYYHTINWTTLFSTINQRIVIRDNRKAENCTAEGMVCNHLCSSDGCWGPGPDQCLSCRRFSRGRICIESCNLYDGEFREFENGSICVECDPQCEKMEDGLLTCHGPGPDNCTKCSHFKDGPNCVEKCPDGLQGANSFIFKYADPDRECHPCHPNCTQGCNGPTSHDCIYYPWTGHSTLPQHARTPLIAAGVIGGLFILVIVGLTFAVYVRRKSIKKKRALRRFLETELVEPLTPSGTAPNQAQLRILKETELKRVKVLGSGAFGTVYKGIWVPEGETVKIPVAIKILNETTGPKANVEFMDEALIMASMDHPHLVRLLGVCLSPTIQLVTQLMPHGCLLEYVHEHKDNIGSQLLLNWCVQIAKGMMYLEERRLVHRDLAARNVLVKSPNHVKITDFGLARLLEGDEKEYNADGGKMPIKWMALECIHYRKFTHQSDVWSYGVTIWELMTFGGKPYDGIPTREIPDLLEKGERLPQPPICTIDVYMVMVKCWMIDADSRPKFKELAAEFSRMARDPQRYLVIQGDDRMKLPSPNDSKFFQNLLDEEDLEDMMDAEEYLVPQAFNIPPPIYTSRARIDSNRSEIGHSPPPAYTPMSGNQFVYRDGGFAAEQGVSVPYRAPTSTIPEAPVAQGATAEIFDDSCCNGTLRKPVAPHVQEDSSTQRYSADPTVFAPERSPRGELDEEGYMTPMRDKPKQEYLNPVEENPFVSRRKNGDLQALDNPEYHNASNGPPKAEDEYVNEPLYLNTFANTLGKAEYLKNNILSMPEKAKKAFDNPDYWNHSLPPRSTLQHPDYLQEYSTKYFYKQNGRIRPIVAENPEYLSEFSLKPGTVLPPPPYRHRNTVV
T25 sequence (P48729 whole entry): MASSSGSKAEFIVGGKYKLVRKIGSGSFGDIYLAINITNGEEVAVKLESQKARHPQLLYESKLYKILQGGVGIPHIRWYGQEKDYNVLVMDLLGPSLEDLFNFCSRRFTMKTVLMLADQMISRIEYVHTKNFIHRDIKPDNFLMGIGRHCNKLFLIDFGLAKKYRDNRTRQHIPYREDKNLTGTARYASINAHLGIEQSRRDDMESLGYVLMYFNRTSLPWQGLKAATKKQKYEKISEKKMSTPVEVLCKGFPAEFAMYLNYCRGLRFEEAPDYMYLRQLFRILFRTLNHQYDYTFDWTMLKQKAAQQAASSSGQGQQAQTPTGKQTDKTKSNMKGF
T18 sequence (P07949 29-1114 M918T): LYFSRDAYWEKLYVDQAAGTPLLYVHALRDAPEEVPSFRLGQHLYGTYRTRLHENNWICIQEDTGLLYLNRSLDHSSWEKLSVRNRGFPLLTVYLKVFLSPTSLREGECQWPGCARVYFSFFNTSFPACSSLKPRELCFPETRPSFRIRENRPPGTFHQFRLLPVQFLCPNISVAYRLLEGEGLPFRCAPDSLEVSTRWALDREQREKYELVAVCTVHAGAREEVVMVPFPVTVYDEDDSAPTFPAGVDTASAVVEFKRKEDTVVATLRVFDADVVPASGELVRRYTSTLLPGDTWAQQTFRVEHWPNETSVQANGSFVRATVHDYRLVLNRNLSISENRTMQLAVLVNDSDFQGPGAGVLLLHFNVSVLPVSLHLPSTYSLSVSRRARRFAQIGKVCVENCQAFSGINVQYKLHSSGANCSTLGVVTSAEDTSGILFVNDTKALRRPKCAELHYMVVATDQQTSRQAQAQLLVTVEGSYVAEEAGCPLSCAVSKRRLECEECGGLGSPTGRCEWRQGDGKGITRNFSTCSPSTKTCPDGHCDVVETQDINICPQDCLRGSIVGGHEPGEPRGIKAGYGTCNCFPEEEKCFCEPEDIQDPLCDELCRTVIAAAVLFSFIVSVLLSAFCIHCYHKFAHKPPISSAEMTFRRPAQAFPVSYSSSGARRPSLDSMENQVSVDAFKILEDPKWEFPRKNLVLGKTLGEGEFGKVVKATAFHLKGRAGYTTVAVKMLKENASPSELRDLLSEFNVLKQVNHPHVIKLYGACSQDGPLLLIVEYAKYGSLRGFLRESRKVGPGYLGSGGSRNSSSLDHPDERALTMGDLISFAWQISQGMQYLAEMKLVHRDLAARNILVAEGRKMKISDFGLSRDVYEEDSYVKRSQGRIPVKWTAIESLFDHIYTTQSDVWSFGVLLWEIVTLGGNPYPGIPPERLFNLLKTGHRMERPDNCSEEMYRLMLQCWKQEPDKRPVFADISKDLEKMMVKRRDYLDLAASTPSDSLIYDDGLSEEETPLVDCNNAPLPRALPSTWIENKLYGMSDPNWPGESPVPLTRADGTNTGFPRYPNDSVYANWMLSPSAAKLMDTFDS
T17 sequence (P00519 229-512 F317L limits assumed): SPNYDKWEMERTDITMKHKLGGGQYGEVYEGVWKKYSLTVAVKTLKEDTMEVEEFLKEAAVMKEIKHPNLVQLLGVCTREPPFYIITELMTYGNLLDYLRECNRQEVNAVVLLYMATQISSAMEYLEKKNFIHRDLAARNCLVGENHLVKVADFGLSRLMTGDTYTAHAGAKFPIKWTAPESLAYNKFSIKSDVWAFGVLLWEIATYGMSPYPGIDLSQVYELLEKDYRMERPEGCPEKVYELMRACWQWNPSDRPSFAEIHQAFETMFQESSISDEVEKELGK

For `O=C(Nc1ccc(Oc2ncnc3[nH]ncc23)cc1)Nc1ccc(Cl)c(C(F)(F)F)c1` [Compound 1, 1-(4-(1H-pyrazolo[3,4-d]pyrimidin-4-yloxy)phenyl)-3-(4-chloro-3-(trifluoromethyl)phenyl)urea], the IC50 (ERBB4) is listed as greater than 10 µM.
`CC(C)(C)c1cc(NC(=O)Nc2ccc(Oc3ncnc4[nH]ncc34)c(F)c2)no1` [SKLB-677, 1-(4-(1H-pyrazolo[3,4-d]pyrimidin-4-yloxy)-3-fluorophenyl)-3-(5-tert-butylisoxazol-3-yl)urea] showed a remaining binding at 10 µM (PIK3CA(C420R)) of 96%, a remaining binding at 10 µM (IGF1R) of 70% and a remaining binding at 10 µM (SgK110) of 100%. For the same molecule, the remaining binding at 10 µM (TNK1) was 2.2%, the remaining binding at 10 µM (RIPK1) was 31% and the remaining binding at 10 µM (EPHB1) was 3.2%. The remaining binding at 10 µM (CSNK1G2) was 26%, the remaining binding at 10 µM (BMPR1A) was 90% and the remaining binding at 10 µM (BRSK2) was 76%. The remaining binding at 10 µM (PKN2) was 100%, the remaining binding at 10 µM (ROCK1) was 100% and the remaining binding at 10 µM (CSF1R-autoinhibited) was 0.1%. It also gave a remaining binding at 10 µM (EGFR(T790M)) of 74%, a remaining binding at 10 µM (p38-alpha) of 0% and a remaining binding at 10 µM (DRAK1) of 100%. The remaining binding at 10 µM (DYRK1A) was 80%, the remaining binding at 10 µM [1] was 10% and the remaining binding at 10 µM (RET(M918T)) was 0%. For the same molecule, the remaining binding at 10 µM (PYK2) was 64%, the remaining binding at 10 µM (OSR1) was 36% and the “Percent Control(%)” value (EGFR(L747-T751del,Sins)) was 61%. It also gave a remaining binding at 10 µM (NEK7) of 48%, a remaining binding at 10 µM (CDK2) of 1.6% and a remaining binding at 10 µM (PCTK3) of 0.05%. For the same molecule, the Kd (FLT3-wt) was 0.00074 µM, the Kd (MAST1) was greater than 10 µM and the remaining binding at 10 µM (CSNK1A1) was 100%. It also gave an IC50 (HepG2) of 6.7 µM, a remaining binding at 10 µM [2] of 14% and a remaining binding at 10 µM (PRP4) of 73%. It also gave a remaining binding at 10 µM (CDC2L5) of 0.6%, a remaining binding at 10 µM (PIK3CA(H1047Y)) of 100% and a remaining binding at 10 µM (TRKA) of 7.8%. For the same molecule, the remaining binding at 10 µM (ERK5) was 70%, the remaining binding at 10 µM (ACVR1B) was 100% and the remaining binding at 10 µM (GRK7) was 87%. It also gave a remaining binding at 10 µM (SRMS) of 57% and a remaining binding at 10 µM (SRPK1) of 96%.
